What was measured:
[1] = tested on: mice irradiated with an LD100; assay: Radiation mitigation: survival of mice irradiated with an LD100; type: in vivo
Method: There were 10 primary hits and 6 confirmed hits and 2 of them were used in mice. Mice were irradiated with an LD100 after which 100% of the mice died after 10 to 15 days. When the researchers injected YEL002 IP into the irradiated mice 24 hours after radiation and another four doses in 24 hours intervals 100% of the mice, so all mice which would otherwise have died survived which was a highly significant difference. Many lived a normal life span of more than 2 years which is interesting since other labs which isolated other compounds their mice died of late radiation effects much earlier.

ATM-deficient mice = assay: Lifespan of ATM-deficient mice injected weekly; type: in vivo; conditions: ATM-deficient mice injected every week during most of their lifespans
lymphoma = assay: Lymphoma incidence in mice (National Institute of Health experiment); type: in vivo; conditions: radiation exposure caused 90% to develop lymphoma without treatment
Method: This was observed after treating mice right after birth, if humans are treated later in life it is possible that only 10 or 5 years are added and probably more for DNA repair deficient diseases like ataxia telangiectasia (ATM) which is still very substantial.

[2] = tested on: three different cancer cell lines; assay: Radiation killing of cancer cell lines; type: cell-based
human keratinocytes = assay: Proteomics study of induced proteins; type: cell-based
Source text: In terms of mechanism of action in a proteomics study, the chemical was capable of inducing 244 different proteins in human keratinocytes, which comprised anti-inflammatory proteins, a number of DNA repair proteins, and even some neuroprotective proteins. It is known that turtles at the Galapagos Islands live 150 or more years without cancer and have multiple copies of DNA repair genes and anti-inflammatory genes. The compound boosts the expression of these genes in mammals. Since it induces DNA repair and is anti-inflammatory, it may be possible to prevent and cure many diseases and extend the life. In addition, patients are using the compound to try to treat Alzheimer's, multiple sclerosis, alopecia, diabetes, to prevent prostate cancer, to increase testosterone level, etc. People report feeling more energetic, less tired, and less combative and become nicer.

Side effects observed = conditions: in vivo
Source text: It is also observed that three different cancer cell lines were not protected from radiation killing by YEL002, which indicates a use in radiation oncology or chemotherapy where the tumor can still be killed by the radiation, or chemotherapy but YEL002 protects the rest of the body from radiation or chemotherapy damage, and inhibits secondary carcinogenesis.

Solubility / appearance = type: physicochemical
Method: The compound takes the appearance of an off-white powder and is fat soluble. One takes a quarter teaspoon or about 0.5 g dissolved in a couple of teaspoons of oil. In an exemplary embodiment, it is dissolved in grape seed oil and taken twice a day, once in the morning and once in the evening. It is easy to use and has almost no taste.

[3] = Case study, eight weeks of use (coughing, diarrhea); type: in vivo, human; conditions: used for eight weeks
Source text: It has also beneficial effects on the skin and one needs less of a cosmetic cream containing the same compound.

[4] = User study: periodontics or receding gums; design: species or system human; conditions: in vivo
Source text: In a user study, the patient's periodontics or receding gums were healed and no longer needed to floss teeth as much, since the teeth are now perfectly aligned and close together without a space in between.

[5] = Eye sight, eye exam in an ophthalmology office; type: in vivo, human
Method: The patient also observed no longer needing eyeglasses after 55 years of wearing them, and after 4 weeks with the drug, the subject can see much better than anybody their age. According to the patient, the compound fixed 2 diopters and 1 astigmatism of eye sight deficiency in only 4 weeks. An eye exam was conducted in an ophthalmology office. […] In every subject using the chemical the eye background is completely green, because YEL002 benefits the retina and optic nerve.

[6] = Patient testimonial: veins and blood; conditions: human, in vivo
Source text: His blood is thinner, since proinflammatory factors make platelets sticky and cause blood clots. Thus, it prevents or treats blood clots.

[7] = Patient testimonial: elevated levels of liver damage; type: in vivo, human; conditions: after two days of treatment; twice elevated for 25 years before
[8] = Patient testimonial: subject on chemotherapy; type: in vivo, human; conditions: one week on YEL002, subject on chemotherapy
Source text: They are extremely happy and all their doctors are happy too and told them that they need to continue their experimental therapy.

[9] = Patient testimonial: subject post-chemotherapy, coughing and wheezing; type: in vivo, human; conditions: one hour after treatment
Source text: According to another patient testimonial, one subject post-chemotherapy had coughing and wheezing symptoms and went downhill very fast and their child was worried that they were dying.

[10] = Patient testimonial: heavy smoker, smoker's leg and hair loss; type: in vivo, human; conditions: one week after treatment
Source text: According to another patient testimonial, one subject was a heavy smoker and they had all kinds of inflammation problems including smoker's leg which were oozing lymph liquid and could not heal for many years.

[11] = Patient testimonial: nose spray in oil, allergic attacks; type: in vivo, human; conditions: dissolved in oil, nose spray 2-4 times a day
Source text: According to another patient testimonial, one subject dissolved YEL002 in oil and used that oil to spray their nose 2-4 times a day.

Which mice survived ([1]; LD100 irradiation, IP 24 hours after radiation and another four doses in 24 hours intervals, without treatment 100% died after 10 to 15 days) does the source give for `COc1ccc2cc(-c3nc4ccc(C)cn4c3NCc3ccco3)c(=O)[nH]c2c1` [YEL002] here?
Its mice survived is 100%.

What about the “life span of surviving irradiated mice” value ([1]; many of the surviving mice) of the same compound?
The value was “more than 2 years”.

And the “lived longer than without injections” value (ATM-deficient mice)?
Its value is 33%.

And the “lymphoma incidence after radiation exposure” value (lymphoma)?
Its value is 40%.

And the “protection of cancer cell lines from radiation killing” value [2]?
The value was “not protected”.

What about the “number of different proteins induced” value (human keratinocytes; human keratinocytes, anti-inflammatory, DNA repair and neuroprotective proteins) of the same compound?
The value was 244.

And the “number of neuroprotective functions induced” value (human keratinocytes; proteomics)?
The value was 9.

And the side effects (Side effects observed)?
The side effects was “no side effects”.

What about the solubility (Solubility / appearance) of the same compound?
Its solubility is “fat soluble”.

What about the “symptoms of coughing and diarrhea” value [3] of the same compound?
The value was “reduced symptoms of coughing and diarrhea”.

What about the “periodontics or receding gums” value [4] of the same compound?
Its value is “healed”.

What about the need for eyeglasses ([5]; another subject who had 6 diopters) of the same compound?
The need for eyeglasses was “does not require eyeglasses any longer”.

What about the “eye sight deficiency fixed, astigmatism” value ([5]; in 4 weeks) of the same compound?
Its value is 1 astigmatism.

What about the “eye sight deficiency fixed, diopters” value ([5]; in 4 weeks) of the same compound?
Its value is 2 diopters.

And the blood [6]?
Its blood is “thinner”.

What about the “varicose and spider veins” value [6] of the same compound?
Its value is “fixes varicose and spider veins”.

And the “levels of liver damage” value [7]?
Its value is “normal and below the cutoff”.

And the body weight gained [8]?
The body weight gained was 2 kg.

What about the vomiting [8] of the same compound?
The vomiting was “completely stopped”.

What about the “coughing and wheezing symptoms” value [9] of the same compound?
The value was “completely alleviated”.

What about the hair loss [10] of the same compound?
Its hair loss is “completely stopped”.

What about the “smoker's leg condition” value [10] of the same compound?
The value was “completely healed”.

And the “allergic attacks such as sneezing and runny nose” value [11]?
Its value is “completely prevented all allergic attacks”.
